Experiment in all cases: growth of human tumour cells (NCI), 48 h
In assay [1] the test system is HOP-92.
Assay [2] relates to OVCAR-3.
In assay [3] the test system is KM12.
Assay [4] concerns T47D.
Assay [5] has as its system HL-60.
The test system of assay [6] is COLO 205.
Assay [7] concerns OVCAR-4.
Assay [8] deals with MCF7.
The subject of assay [9] is BT-549.
Assay [10] has as its system DU-145.
Assay [11] deals with NCI/ADR-RES.
Assay [12] relates to UACC-62.
Assay [13] relates to NCI-H23.
The test system of assay [14] is SNB-75.
The test system of assay [15] is HCT-116.
The subject of assay [16] is RXF 393.
Assay [17] relates to CAKI-1.
Assay [18] deals with OVCAR-5.
For assay [19], the system named is HCC 2998.
For assay [20], the system named is SK-MEL-28.

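Cultured in 96-well plates, cells were exposed to test compound for 48 hours across five concentrations. Abbreviation: GI50, concentration required for 50% inhibition of growth.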 Active and inactive are the calls of the source. Cut-off read from the data, not from the text of the source: active = GI50 up to about 1.1 µM and inactive = higher.

With `CCCCCCCCCCCCCCCCOC[C@@H](COC(c1ccccc1)(c1ccccc1)c1ccccc1)O[PH](=S)OC` (some centres undefined), the GI50 is 12.4 µM (inactive) in assay [1]; 13.2 µM (inactive) in assay [2]; 4.3 µM (inactive) in [3]; 16.2 µM (inactive) in assay [4]; 14.8 µM (inactive) in assay [5]; 17.9 µM (inactive) in assay [6]. In addition, the GI50 in assay [7] is 9.35 µM (inactive); in [8], 7.43 µM (inactive); in [9], 3.35 µM (inactive); in assay [10], 17 µM (inactive); in assay [11] it was 22.6 µM (inactive); in [12] it was 3.81 µM (inactive). The GI50 is 10.9 µM (inactive) in [13]; 10.3 µM (inactive) in [14]; 3.86 µM (inactive) in assay [15]; 7.53 µM (inactive) in assay [16]; 11.6 µM (inactive) in [17]; 10.8 µM (inactive) in assay [18].

Turning to `CC(=O)N1c2cc(/N=N/N(C)C)ccc2NC(=O)CC1C` (centres undefined), the GI50 in [2], in [3], in assay [4], in assay [5], in assay [19] and in [6] was > 100 µM (inactive) each time. For the same compound, the GI50 in assay [7], in assay [8], in assay [9], in assay [10], in assay [20] and in assay [11] was > 100 µM (inactive) each time. The GI50 in assay [12], in assay [13], in assay [14], in assay [15], in [16] and in [17] was > 100 µM (inactive) in each case. For the same compound, the GI50 in assay [18] was > 100 µM (inactive).

As to `O=C(Nc1cccc(F)c1)c1cc2ccc(O)cc2o/c1=N\c1ccccc1F`, the GI50 in assay [2] was 3.81 µM (inactive); in assay [3], 3.75 µM (inactive); in assay [4], 3.38 µM (inactive); in assay [5], 2.45 µM (inactive); in assay [19] it was 9.59 µM (inactive); in [6] it was 21.1 µM (inactive). The GI50 was 3.56 µM (inactive) in assay [7]; 3.33 µM (inactive) in assay [8]; 2.13 µM (inactive) in [9]; 4.28 µM (inactive) in assay [10]; 4.05 µM (inactive) in assay [20]; 2.9 µM (inactive) in assay [11]. Besides, the GI50 in assay [12] is 4.38 µM (inactive); in assay [13], 2.18 µM (inactive); in [15] it was 4.03 µM (inactive); in assay [17], 4.39 µM (inactive); in [18], 17.2 µM (inactive).

Turning to `CC(=O)NN(c1ccccc1)C1CCN(c2ccccc2)N1C(C)=O` (centres undefined), the GI50 was > 10 µM (inactive) in assay [2]; > 10 µM (inactive) in assay [4]; 3.69 µM (inactive) in assay [5]; 3.82 µM (inactive) in assay [19]; 3.13 µM (inactive) in assay [6]; > 10 µM (inactive) in [7]. For the same compound, the GI50 in assay [8] is 8.91 µM (inactive); in [9] it was > 10 µM (inactive); in [10] it was > 10 µM (inactive); in [20], > 10 µM (inactive); in assay [11], 5.52 µM (inactive); in assay [13], > 10 µM (inactive). The GI50 is > 10 µM (inactive) in assay [14]; 9.84 µM (inactive) in assay [15]; > 10 µM (inactive) in assay [16]; 4.12 µM (inactive) in assay [17]; > 10 µM (inactive) in assay [18].

For the compound `C/C(=C\CO)CC/C=C(\C)CNc1ccccc1`, the GI50 in [2] is 18.2 µM (inactive); in assay [3], 28.4 µM (inactive); in assay [4] it was 14.7 µM (inactive); in assay [5] it was 30.1 µM (inactive); in assay [6], 41.2 µM (inactive); in assay [8] it was 78.7 µM (inactive). Besides, the GI50 in assay [9] is 18.6 µM (inactive); in assay [10], 37.8 µM (inactive); in assay [20], 51.1 µM (inactive); in assay [11], 40.4 µM (inactive); in assay [12] it was 36.1 µM (inactive); in assay [13], < 0.01 µM (active). The GI50 was 0.0498 µM (active) in [14]; 54.5 µM (inactive) in assay [15]; 48.1 µM (inactive) in assay [16]; 57.5 µM (inactive) in assay [17]; > 100 µM (inactive) in [18].

In the case of `c1cncc(CC2(c3cc4ccccc4[nH]3)OCCO2)c1`, the GI50 was > 100 µM (inactive) in assay [1]; > 100 µM (inactive) in assay [3]; > 100 µM (inactive) in [4]; 37.2 µM (inactive) in assay [5]; > 100 µM (inactive) in [19]; > 100 µM (inactive) in assay [6]. Also, the GI50 in assay [7] is > 100 µM (inactive); in assay [8], > 100 µM (inactive); in assay [9] it was 66.1 µM (inactive); in [10], > 100 µM (inactive); in assay [20] it was > 100 µM (inactive); in [11], > 100 µM (inactive). Besides, the GI50 in assay [12], in assay [13], in [14], in assay [15] and in assay [17] was > 100 µM (inactive) throughout.

For `O=C(CSCC(=O)N/N=C\c1cc(Cl)cc(Cl)c1O)N/N=C\c1cc(Cl)cc(Cl)c1O`, the GI50 was 5.73 µM (inactive) in [1]; 1.69 µM (inactive) in assay [2]; 6.1 µM (inactive) in assay [3]; 3.08 µM (inactive) in [4]; 2.75 µM (inactive) in assay [5]; 6.1 µM (inactive) in assay [6]. In addition, the GI50 in assay [7] is 2.42 µM (inactive); in assay [8], 7.29 µM (inactive); in [9] it was 4.81 µM (inactive); in [10], 8.91 µM (inactive); in assay [20] it was 5.21 µM (inactive); in assay [11], 2.96 µM (inactive). The GI50 was 3.64 µM (inactive) in assay [12]; 10.1 µM (inactive) in assay [13]; 12.4 µM (inactive) in assay [14]; 2.9 µM (inactive) in assay [15]; 20.5 µM (inactive) in assay [16]; 3.48 µM (inactive) in assay [17]. Besides, the GI50 in assay [18] is 10.4 µM (inactive).

As to `O=C(NNC(=S)NC1CCCCC1)c1csc(NC(=S)NC2CCCCC2)n1`, the GI50 in assay [2] was 4.04 µM (inactive); in assay [3], 10.6 µM (inactive); in [4], 13.1 µM (inactive); in assay [5], > 100 µM (inactive); in [19], 3.12 µM (inactive); in [6], 3.22 µM (inactive). Moreover, the GI50 in assay [8] was 7.55 µM (inactive); in assay [9], 2.9 µM (inactive); in [10], 14.9 µM (inactive); in [11], 2.74 µM (inactive); in [12] it was 4.45 µM (inactive); in assay [13], 10.4 µM (inactive). The GI50 in [14] was > 10 µM (inactive); in assay [15], 4.27 µM (inactive); in assay [17] it was 7.23 µM (inactive); in [18] it was 12.8 µM (inactive).

On to `CCCCCC(/C=C/C1CCC(=O)C1CC#C[Si](C)(C)C)OCc1ccccc1` (centres undefined), for which the GI50 in assay [1] is 12.1 µM (inactive); in assay [2], 17.5 µM (inactive); in assay [3], 16.2 µM (inactive); in assay [4] it was 23.2 µM (inactive); in assay [19], 17.9 µM (inactive); in assay [6] it was 19.2 µM (inactive). In addition, the GI50 is 26.9 µM (inactive) in assay [7]; 19.1 µM (inactive) in assay [8]; 17.3 µM (inactive) in assay [9]; 31.8 µM (inactive) in assay [10]; 23 µM (inactive) in assay [20]; 14.5 µM (inactive) in [11]. Besides, the GI50 in assay [12] is 13.5 µM (inactive); in [13], 22.2 µM (inactive); in assay [14], 16.6 µM (inactive); in [15], 15.8 µM (inactive); in assay [16], 13.9 µM (inactive); in [17] it was 17.9 µM (inactive). Further, in [18], the GI50 was 19.9 µM (inactive).

For `O=C(O)[C@@H]1CSCN1C(=O)[C@@H]1CCC(=S)N1`, the GI50 in assay [2], in [3], in assay [4], in assay [5], in assay [19] and in assay [8] was > 100 µM (inactive) in each case. Further, the GI50 in assay [9] was > 100 µM (inactive); in assay [10], > 100 µM (inactive); in assay [20], > 100 µM (inactive); in [11], > 100 µM (inactive); in assay [12], > 10 µM (inactive); in assay [13], > 100 µM (inactive). Further, the GI50 in [14], in assay [16], in assay [17] and in [18] was > 100 µM (inactive) throughout.

For the compound `CC(=O)O[C@H]1C[C@H](O[C@H]2[C@@H](O)C[C@H](O[C@H]3[C@@H](O)C[C@H](O[C@H]4CC[C@@]5(C)[C@H](CC[C@@H]6[C@@H]5C[C@@H](O)[C@]5(C)[C@@H](C7=CC(=O)OC7)CC[C@]65O)C4)O[C@@H]3C)O[C@@H]2C)O[C@H](C)[C@H]1O[C@@H]1O[C@H](CO)[C@@H](O)[C@H](O)[C@H]1O` [LANATOSIDE C], the GI50 was 0.122 µM (active) in [1]; 0.041 µM (active) in [2]; 0.104 µM (active) in [3]; 0.0778 µM (active) in [4]; 0.0332 µM (active) in [5]; 0.148 µM (active) in assay [19]. For the same compound, the GI50 is 0.136 µM (active) in assay [6]; 0.0465 µM (active) in assay [7]; 0.051 µM (active) in assay [8]; 0.044 µM (active) in [9]; 0.0313 µM (active) in [10]; 0.303 µM (active) in assay [20]. The GI50 in assay [11] is 0.0364 µM (active); in assay [12] it was 0.21 µM (active); in assay [13], 0.0193 µM (active); in assay [14] it was 0.167 µM (active); in assay [15] it was 0.0324 µM (active); in assay [17], 0.0336 µM (active). Moreover, in assay [18], the GI50 is 0.0869 µM (active).

The values above are taken from ChEMBL document CHEMBL1201862, “PubChem BioAssay data set” (2004).
